pIC50: −log10 of the molar value.
How the values were obtained:
Type in all cases: biochemical
Cdc25A = target: T1, Cdc25A (Homo sapiens, UniProt P30304); experiment: Phosphatase panel, pNPP assay; conditions: at 10 μM
T1 sequence (P30304 1-524): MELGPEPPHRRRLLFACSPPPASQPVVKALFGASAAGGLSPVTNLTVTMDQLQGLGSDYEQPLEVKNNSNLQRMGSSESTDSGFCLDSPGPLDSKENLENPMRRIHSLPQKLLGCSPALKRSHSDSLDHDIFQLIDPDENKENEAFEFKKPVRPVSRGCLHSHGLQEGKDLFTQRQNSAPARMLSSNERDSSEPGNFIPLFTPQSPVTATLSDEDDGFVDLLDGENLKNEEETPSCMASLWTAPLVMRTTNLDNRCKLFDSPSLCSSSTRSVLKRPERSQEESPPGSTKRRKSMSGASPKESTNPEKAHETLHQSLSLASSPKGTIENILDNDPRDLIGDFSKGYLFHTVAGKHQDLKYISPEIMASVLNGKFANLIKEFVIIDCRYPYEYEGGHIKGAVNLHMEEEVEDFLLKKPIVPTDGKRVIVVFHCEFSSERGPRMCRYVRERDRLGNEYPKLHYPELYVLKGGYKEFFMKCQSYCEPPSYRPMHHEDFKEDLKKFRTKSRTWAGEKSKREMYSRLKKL

LAR = target: T2, LAR (Homo sapiens, UniProt P10586); experiment: Phosphatase panel, pNPP assay; conditions: 2 mM pNPP; read-out: Inhibition Potency, IC50
T2 construct: The intracellular fragment of PTPa, LAR and CD45 containing both of the PTPase domains was cleaved off the fusion protein; GST (cleaved yes); made in house
T2 sequence (P10586 1285-1907 limits assumed): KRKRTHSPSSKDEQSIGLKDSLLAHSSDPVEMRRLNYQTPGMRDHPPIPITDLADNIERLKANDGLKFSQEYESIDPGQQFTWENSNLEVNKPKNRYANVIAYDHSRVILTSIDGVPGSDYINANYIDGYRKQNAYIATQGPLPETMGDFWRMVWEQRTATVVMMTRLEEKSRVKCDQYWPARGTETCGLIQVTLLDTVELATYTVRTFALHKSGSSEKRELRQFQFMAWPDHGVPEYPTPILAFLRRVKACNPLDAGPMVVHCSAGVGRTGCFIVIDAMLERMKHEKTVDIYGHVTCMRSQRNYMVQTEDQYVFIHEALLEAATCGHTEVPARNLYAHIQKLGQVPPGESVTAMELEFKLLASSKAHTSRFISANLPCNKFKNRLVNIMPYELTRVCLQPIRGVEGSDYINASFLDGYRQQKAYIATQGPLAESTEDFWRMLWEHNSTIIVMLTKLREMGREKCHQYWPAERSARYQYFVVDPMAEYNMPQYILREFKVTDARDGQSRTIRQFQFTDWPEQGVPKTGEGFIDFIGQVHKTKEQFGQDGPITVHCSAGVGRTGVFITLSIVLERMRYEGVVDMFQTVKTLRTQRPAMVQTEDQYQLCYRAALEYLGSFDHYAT

PP2Cα = target: T3, PP2Cα (Homo sapiens, UniProt P35813); experiment: Phosphatase panel, pNPP assay; conditions: at 10 μM
T3 sequence (P35813 1-382): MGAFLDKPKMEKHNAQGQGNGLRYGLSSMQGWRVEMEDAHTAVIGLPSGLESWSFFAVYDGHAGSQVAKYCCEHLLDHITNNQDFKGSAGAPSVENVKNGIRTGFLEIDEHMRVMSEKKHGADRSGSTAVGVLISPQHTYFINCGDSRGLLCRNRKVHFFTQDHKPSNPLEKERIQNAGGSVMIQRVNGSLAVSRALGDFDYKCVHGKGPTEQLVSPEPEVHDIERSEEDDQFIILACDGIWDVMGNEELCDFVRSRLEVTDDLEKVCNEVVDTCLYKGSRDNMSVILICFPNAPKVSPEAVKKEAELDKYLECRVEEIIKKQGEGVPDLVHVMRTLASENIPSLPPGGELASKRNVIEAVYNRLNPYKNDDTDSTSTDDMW

PTP1B = target: T4, PTP1B (Homo sapiens, UniProt P18031); experiment: PTPase activity assay with pNPP substrate
T4 construct: PTP1B (residues 1-321) (22); made in house; host or cells: E. coli
T4 sequence (P18031 1-321): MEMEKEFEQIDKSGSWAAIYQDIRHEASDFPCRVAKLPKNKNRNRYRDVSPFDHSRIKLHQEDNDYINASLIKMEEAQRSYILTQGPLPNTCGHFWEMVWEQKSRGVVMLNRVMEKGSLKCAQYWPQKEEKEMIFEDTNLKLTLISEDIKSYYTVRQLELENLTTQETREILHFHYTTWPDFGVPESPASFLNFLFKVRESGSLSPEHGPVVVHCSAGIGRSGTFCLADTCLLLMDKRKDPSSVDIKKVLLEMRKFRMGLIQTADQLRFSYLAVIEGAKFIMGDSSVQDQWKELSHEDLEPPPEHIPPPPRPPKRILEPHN

NC(=O)C(Cc1ccc(C(F)(F)P(=O)(O)O)cc1)NC(=O)C(CC(=O)O)NC(=O)Cc1ccc(C(F)(F)P(=O)(O)O)cc1 (centres unmarked) [Compound 40]
Inhibition Potency (Cdc25A): No inhibition at 10 μM
pIC50 (LAR): 4.14
Inhibition Potency (PP2Cα): No inhibition at 10 μM
preference for PTP1B versus nearly all phosphatases examined (PTP1B; panel of Table 2): greater than three orders of magnitude
mode of inhibition (PTP1B; with respect to the substrate pNPP): competitive

Source: patent publication US20040191926A1 (priority 2001, published 2004)
